Assay results taken from PubChem BioAssay (NCI).
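Exposure lasted 48 hours, with cells grown in 96-well plates and compounds tested at five concentrations. GI50 marks 50% less growth. TGI is the concentration that stops growth completely.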

How the values were obtained:
Assay in all cases: NCI anticancer screen, dose series, 48 h
786-0 renal = test system: 786-0 renal
A498 renal = test system: A498 renal
A549 NSCLC = test system: A549 NSCLC
ACHN renal = test system: ACHN renal
BT-549 breast = test system: BT-549 breast
CAKI-1 renal = test system: CAKI-1 renal
COLO 205 colon = test system: COLO 205 colon
DU-145 prostate = test system: DU-145 prostate
EKVX NSCLC = test system: EKVX NSCLC
HCC-2998 colon = test system: HCC-2998 colon
HCT-116 colon = test system: HCT-116 colon
HCT-15 colon = test system: HCT-15 colon
HOP-62 NSCLC = test system: HOP-62 NSCLC
HOP-92 NSCLC = test system: HOP-92 NSCLC
HS 578T breast = test system: HS 578T breast
HT29 colon = test system: HT29 colon
IGROV1 ovarian = test system: IGROV1 ovarian
K-562 leukemia = test system: K-562 leukemia
KM12 colon = test system: KM12 colon
LOX IMVI melanoma = test system: LOX IMVI melanoma
M14 melanoma = test system: M14 melanoma
MALME-3M melanoma = test system: MALME-3M melanoma
MCF7 breast = test system: MCF7 breast
MDA-MB-231 breast = test system: MDA-MB-231 breast
MDA-MB-435 = test system: MDA-MB-435
MOLT-4 leukemia = test system: MOLT-4 leukemia
NCI-H23 lung = test system: NCI-H23 lung
NCI-H460 lung = test system: NCI-H460 lung
NCI-H522 lung = test system: NCI-H522 lung
NCI/ADR-RES ovarian = test system: NCI/ADR-RES ovarian
OVCAR-3 ovarian = test system: OVCAR-3 ovarian
OVCAR-4 ovarian = test system: OVCAR-4 ovarian
OVCAR-5 ovarian = test system: OVCAR-5 ovarian
OVCAR-8 ovarian = test system: OVCAR-8 ovarian
PC-3 prostate = test system: PC-3 prostate
RPMI-8226 leukemia = test system: RPMI-8226 leukemia
RXF 393 renal = test system: RXF 393 renal
SF-268 CNS = test system: SF-268 CNS
SF-295 CNS = test system: SF-295 CNS
SF-539 CNS = test system: SF-539 CNS
SK-MEL-2 melanoma = test system: SK-MEL-2 melanoma
SK-MEL-28 melanoma = test system: SK-MEL-28 melanoma
SK-MEL-5 melanoma = test system: SK-MEL-5 melanoma
SK-OV-3 ovarian = test system: SK-OV-3 ovarian
SN12C renal = test system: SN12C renal
SNB-19 CNS = test system: SNB-19 CNS
SNB-75 CNS = test system: SNB-75 CNS
SW-620 colon = test system: SW-620 colon
T-47D breast = test system: T-47D breast
TK-10 renal = test system: TK-10 renal
U251 CNS = test system: U251 CNS
UACC-257 melanoma = test system: UACC-257 melanoma
UACC-62 melanoma = test system: UACC-62 melanoma
UO-31 renal = test system: UO-31 renal

Work on `C#CCN(Cc1nc2cc(C(F)(F)F)ccc2nc1-c1ccccc1)c1ccc(OC(F)(F)F)cc1` yielded a GI50 (786-0 renal) of over 100 µM, a TGI (786-0 renal) of over 100 µM and a GI50 (A498 renal) of 50.1 µM. For the same molecule, the TGI (A498 renal) was over 100 µM, the GI50 (A549 NSCLC) was 63.8 µM and the TGI (A549 NSCLC) was over 100 µM. The GI50 (ACHN renal) was 50.2 µM, the TGI (ACHN renal) was over 100 µM and the GI50 (BT-549 breast) was 44.9 µM. The TGI (BT-549 breast) was over 100 µM, the GI50 (CAKI-1 renal) was 62 µM and the TGI (CAKI-1 renal) was over 100 µM. It also gave a GI50 (COLO 205 colon) of 45.4 µM, a TGI (COLO 205 colon) of over 100 µM and a GI50 (DU-145 prostate) of 36.5 µM. For the same molecule, the TGI (DU-145 prostate) was over 100 µM, the GI50 (EKVX NSCLC) was 32.6 µM and the TGI (EKVX NSCLC) was over 100 µM. For the same molecule, the GI50 (HCC-2998 colon) was 30.3 µM, the TGI (HCC-2998 colon) was 91.9 µM and the GI50 (HCT-116 colon) was 25 µM. For the same molecule, the TGI (HCT-116 colon) was over 100 µM, the GI50 (HCT-15 colon) was over 100 µM and the TGI (HCT-15 colon) was over 100 µM. For the same molecule, the GI50 (HOP-62 NSCLC) was over 100 µM, the TGI (HOP-62 NSCLC) was over 100 µM and the GI50 (HOP-92 NSCLC) was 18.5 µM. It also gave a TGI (HOP-92 NSCLC) of 77.3 µM, a GI50 (HS 578T breast) of over 100 µM and a TGI (HS 578T breast) of over 100 µM. The GI50 (HT29 colon) was 40.3 µM, the TGI (HT29 colon) was over 100 µM and the GI50 (IGROV1 ovarian) was 34.8 µM. The TGI (IGROV1 ovarian) was over 100 µM, the GI50 (K-562 leukemia) was 33.9 µM and the TGI (K-562 leukemia) was over 100 µM. It also gave a GI50 (KM12 colon) of 29.1 µM, a TGI (KM12 colon) of 78.8 µM and a GI50 (LOX IMVI melanoma) of 37 µM. For the same molecule, the TGI (LOX IMVI melanoma) was 96.1 µM, the GI50 (M14 melanoma) was 50.3 µM and the TGI (M14 melanoma) was over 100 µM. For the same molecule, the GI50 (MALME-3M melanoma) was over 100 µM, the TGI (MALME-3M melanoma) was over 100 µM and the GI50 (MCF7 breast) was 32 µM. The TGI (MCF7 breast) was over 100 µM, the GI50 (MDA-MB-231 breast) was 28.4 µM and the TGI (MDA-MB-231 breast) was over 100 µM. It also gave a GI50 (MDA-MB-435) of 39.4 µM, a TGI (MDA-MB-435) of over 100 µM and a GI50 (MOLT-4 leukemia) of 32.2 µM. The TGI (MOLT-4 leukemia) was over 100 µM, the GI50 (NCI-H23 lung) was 60.5 µM and the TGI (NCI-H23 lung) was over 100 µM. For the same molecule, the GI50 (NCI-H460 lung) was 38 µM, the TGI (NCI-H460 lung) was over 100 µM and the GI50 (NCI-H522 lung) was 16.6 µM. It also gave a TGI (NCI-H522 lung) of 54.6 µM, a GI50 (NCI/ADR-RES ovarian) of over 100 µM and a TGI (NCI/ADR-RES ovarian) of over 100 µM. For the same molecule, the GI50 (OVCAR-3 ovarian) was 49.1 µM, the TGI (OVCAR-3 ovarian) was over 100 µM and the GI50 (OVCAR-4 ovarian) was over 100 µM. For the same molecule, the TGI (OVCAR-4 ovarian) was over 100 µM, the GI50 (OVCAR-5 ovarian) was over 100 µM and the TGI (OVCAR-5 ovarian) was over 100 µM. It also gave a GI50 (OVCAR-8 ovarian) of 74.3 µM, a TGI (OVCAR-8 ovarian) of over 100 µM and a GI50 (PC-3 prostate) of 44.4 µM. It also gave a TGI (PC-3 prostate) of over 100 µM, a GI50 (RPMI-8226 leukemia) of 23.3 µM and a TGI (RPMI-8226 leukemia) of over 100 µM. It also gave a GI50 (RXF 393 renal) of 46.7 µM, a TGI (RXF 393 renal) of over 100 µM and a GI50 (SF-268 CNS) of 47.5 µM. It also gave a TGI (SF-268 CNS) of over 100 µM, a GI50 (SF-295 CNS) of over 100 µM and a TGI (SF-295 CNS) of over 100 µM. The GI50 (SF-539 CNS) was 20 µM, the TGI (SF-539 CNS) was 41.2 µM and the GI50 (SK-MEL-2 melanoma) was over 100 µM. It also gave a TGI (SK-MEL-2 melanoma) of over 100 µM, a GI50 (SK-MEL-28 melanoma) of over 100 µM and a TGI (SK-MEL-28 melanoma) of over 100 µM. For the same molecule, the GI50 (SK-MEL-5 melanoma) was 34 µM, the TGI (SK-MEL-5 melanoma) was over 100 µM and the GI50 (SK-OV-3 ovarian) was over 100 µM. For the same molecule, the TGI (SK-OV-3 ovarian) was over 100 µM, the GI50 (SN12C renal) was 38.2 µM and the TGI (SN12C renal) was over 100 µM. For the same molecule, the GI50 (SNB-19 CNS) was over 100 µM, the TGI (SNB-19 CNS) was over 100 µM and the GI50 (SNB-75 CNS) was over 100 µM. The TGI (SNB-75 CNS) was over 100 µM, the GI50 (SW-620 colon) was 40.9 µM and the TGI (SW-620 colon) was over 100 µM. The GI50 (T-47D breast) was 39.1 µM, the TGI (T-47D breast) was over 100 µM and the GI50 (TK-10 renal) was 78.9 µM. It also gave a TGI (TK-10 renal) of over 100 µM, a GI50 (U251 CNS) of 48.8 µM and a TGI (U251 CNS) of over 100 µM. The GI50 (UACC-257 melanoma) was over 100 µM, the TGI (UACC-257 melanoma) was over 100 µM and the GI50 (UACC-62 melanoma) was 48.6 µM. It also gave a TGI (UACC-62 melanoma) of over 100 µM, a GI50 (UO-31 renal) of 50.7 µM and a TGI (UO-31 renal) of over 100 µM.
